Laboratory results taken from the kinase profiling compilation of Christmann-Franck et al. (2016).

Assays:
Assay in all cases: radiometric filter-binding kinase assay, Kinase HotSpot
Settings in all cases: compound 0.5 µM; ATP 10 µM
TYRO3 (human) = TYRO3 (human) (UniProt Q06418)
CDK3 CCNE1 (human) = CDK3 CCNE1 (human) (UniProt Q00526+P24864)
ULK2 (human) = ULK2 (human) (UniProt Q8IYT8)
CDK6 CCND3 (human) = CDK6 CCND3 (human) (UniProt P30281+Q00534)
RPS6KA1 KD1 KD2 (human) = RPS6KA1 KD1 KD2 (human) (UniProt Q15418)
RIPK2 (human) = RIPK2 (human) (UniProt O43353)
PIM2 (human) = PIM2 (human) (UniProt Q9P1W9)
RPS6KA2 KD1 KD2 (human) = RPS6KA2 KD1 KD2 (human) (UniProt Q15349)
NEK1 (human) = NEK1 (human) (UniProt Q96PY6)
PASK (human) = PASK (human) (UniProt Q96RG2)
SGK3 (human) = SGK3 (human) (UniProt Q96BR1)
GSK3A (human) = GSK3A (human) (UniProt P49840)
ITK (human) = ITK (human) (UniProt Q08881)
CAMK2B (human) = CAMK2B (human) (UniProt Q13554)
IKBKB (human) = IKBKB (human) (UniProt O14920)
[1] = target: JAK1 JH1 catalytic (human) (UniProt P23458)
TSSK1B (human) = TSSK1B (human) (UniProt Q9BXA7)
OXSR1 (human) = OXSR1 (human) (UniProt O95747)
MST1R (human) = MST1R (human) (UniProt Q04912)
PIM3 (human) = PIM3 (human) (UniProt Q86V86)
TEK (human) = TEK (human) (UniProt Q02763)
PRKCA (human) = PRKCA (human) (UniProt P17252)
MATK (human) = MATK (human) (UniProt P42679)
MAP3K10 (human) = MAP3K10 (human) (UniProt Q02779)
MAPK10 (human) = MAPK10 (human) (UniProt P53779)
MAP4K5 (human) = MAP4K5 (human) (UniProt Q9Y4K4)
CSF1R (human) = CSF1R (human) (UniProt P07333)
MAP4K4 (human) = MAP4K4 (human) (UniProt O95819)
MAPKAPK2 (human) = MAPKAPK2 (human) (UniProt P49137)
MUSK (human) = MUSK (human) (UniProt O15146)
BRSK1 (human) = BRSK1 (human) (UniProt Q8TDC3)
EPHA5 (human) = EPHA5 (human) (UniProt P54756)
PRKCI (human) = PRKCI (human) (UniProt P41743)
FES (human) = FES (human) (UniProt P07332)
RET (human) = RET (human) (UniProt P07949)
STK3 (human) = STK3 (human) (UniProt Q13188)
MAP2K2 (human) = MAP2K2 (human) (UniProt P36507)
CAMK4 (human) = CAMK4 (human) (UniProt Q16566)
PRKG2 (human) = PRKG2 (human) (UniProt Q13237)
SIK2 (human) = SIK2 (human) (UniProt Q9H0K1)
MINK1 (human) = MINK1 (human) (UniProt Q8N4C8)
Chain of MINK1 (human) (Q8N4C8 whole entry, looked up): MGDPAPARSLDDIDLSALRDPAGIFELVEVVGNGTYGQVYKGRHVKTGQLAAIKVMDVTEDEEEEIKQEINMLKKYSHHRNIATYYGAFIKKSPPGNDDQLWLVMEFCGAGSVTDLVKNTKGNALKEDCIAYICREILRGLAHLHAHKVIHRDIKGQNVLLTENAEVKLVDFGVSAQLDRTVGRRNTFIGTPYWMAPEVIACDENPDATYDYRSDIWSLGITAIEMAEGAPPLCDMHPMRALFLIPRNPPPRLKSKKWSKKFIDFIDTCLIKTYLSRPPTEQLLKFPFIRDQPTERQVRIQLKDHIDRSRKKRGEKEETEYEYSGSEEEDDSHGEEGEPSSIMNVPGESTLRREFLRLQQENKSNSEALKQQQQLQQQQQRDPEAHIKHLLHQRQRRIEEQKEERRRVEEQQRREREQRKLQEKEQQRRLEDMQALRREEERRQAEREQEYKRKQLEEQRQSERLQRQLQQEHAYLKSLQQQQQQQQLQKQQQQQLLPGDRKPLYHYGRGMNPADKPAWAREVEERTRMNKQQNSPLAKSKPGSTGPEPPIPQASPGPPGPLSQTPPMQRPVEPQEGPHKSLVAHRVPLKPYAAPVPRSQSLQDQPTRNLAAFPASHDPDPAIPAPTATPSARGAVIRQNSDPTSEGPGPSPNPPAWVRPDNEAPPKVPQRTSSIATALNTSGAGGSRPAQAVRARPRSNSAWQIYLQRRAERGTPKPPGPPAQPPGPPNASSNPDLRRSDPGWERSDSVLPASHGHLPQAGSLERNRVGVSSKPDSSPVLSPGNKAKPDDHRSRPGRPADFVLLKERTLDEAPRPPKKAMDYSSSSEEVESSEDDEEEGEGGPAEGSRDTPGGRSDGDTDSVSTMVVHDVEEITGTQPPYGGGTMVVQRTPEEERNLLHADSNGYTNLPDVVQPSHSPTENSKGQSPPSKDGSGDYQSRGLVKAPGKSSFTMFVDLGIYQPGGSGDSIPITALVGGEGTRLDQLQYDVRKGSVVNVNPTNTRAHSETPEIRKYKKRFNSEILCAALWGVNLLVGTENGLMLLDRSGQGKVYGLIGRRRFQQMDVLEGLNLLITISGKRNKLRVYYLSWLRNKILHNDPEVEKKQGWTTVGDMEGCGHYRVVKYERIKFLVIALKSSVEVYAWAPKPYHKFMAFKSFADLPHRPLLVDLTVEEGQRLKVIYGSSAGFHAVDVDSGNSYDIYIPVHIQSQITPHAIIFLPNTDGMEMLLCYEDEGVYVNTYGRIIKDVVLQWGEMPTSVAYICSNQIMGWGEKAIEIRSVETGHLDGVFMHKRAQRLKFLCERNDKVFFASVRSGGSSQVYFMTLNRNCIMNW

Chain of RPS6KA2 KD1 KD2 (human) (Q15349 whole entry, looked up): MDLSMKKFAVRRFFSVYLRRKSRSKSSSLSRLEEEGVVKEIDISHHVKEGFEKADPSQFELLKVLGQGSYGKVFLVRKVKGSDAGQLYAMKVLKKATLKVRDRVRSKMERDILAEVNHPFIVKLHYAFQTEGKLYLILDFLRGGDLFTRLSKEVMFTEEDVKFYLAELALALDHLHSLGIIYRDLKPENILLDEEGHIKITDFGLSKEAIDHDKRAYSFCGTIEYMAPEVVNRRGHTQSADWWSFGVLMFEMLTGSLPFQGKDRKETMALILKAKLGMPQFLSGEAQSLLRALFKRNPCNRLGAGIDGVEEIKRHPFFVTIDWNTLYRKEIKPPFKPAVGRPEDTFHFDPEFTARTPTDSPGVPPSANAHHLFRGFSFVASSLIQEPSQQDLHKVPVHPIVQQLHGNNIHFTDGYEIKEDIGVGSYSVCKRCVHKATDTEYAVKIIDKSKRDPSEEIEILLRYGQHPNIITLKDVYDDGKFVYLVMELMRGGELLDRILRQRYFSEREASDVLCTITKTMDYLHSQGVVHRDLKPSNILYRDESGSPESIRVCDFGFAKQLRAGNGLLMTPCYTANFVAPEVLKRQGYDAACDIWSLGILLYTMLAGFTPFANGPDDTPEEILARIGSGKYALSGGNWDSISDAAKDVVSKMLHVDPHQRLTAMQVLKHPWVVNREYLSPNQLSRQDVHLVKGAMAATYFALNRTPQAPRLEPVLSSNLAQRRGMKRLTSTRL
Chain of STK3 (human) (Q13188 whole entry, looked up): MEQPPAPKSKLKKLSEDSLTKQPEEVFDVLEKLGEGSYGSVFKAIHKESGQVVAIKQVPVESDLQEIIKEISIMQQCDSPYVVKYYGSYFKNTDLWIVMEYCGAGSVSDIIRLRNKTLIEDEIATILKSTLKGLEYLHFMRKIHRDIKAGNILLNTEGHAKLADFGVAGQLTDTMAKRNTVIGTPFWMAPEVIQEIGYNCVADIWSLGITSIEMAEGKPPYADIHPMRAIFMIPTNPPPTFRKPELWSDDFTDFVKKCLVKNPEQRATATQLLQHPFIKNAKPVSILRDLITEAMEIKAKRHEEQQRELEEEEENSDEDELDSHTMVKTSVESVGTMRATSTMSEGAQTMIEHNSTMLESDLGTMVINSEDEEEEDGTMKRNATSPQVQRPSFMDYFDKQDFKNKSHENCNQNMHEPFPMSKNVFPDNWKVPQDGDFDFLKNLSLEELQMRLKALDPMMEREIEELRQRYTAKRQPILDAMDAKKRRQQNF
Chain of IKBKB (human) (O14920 whole entry, looked up): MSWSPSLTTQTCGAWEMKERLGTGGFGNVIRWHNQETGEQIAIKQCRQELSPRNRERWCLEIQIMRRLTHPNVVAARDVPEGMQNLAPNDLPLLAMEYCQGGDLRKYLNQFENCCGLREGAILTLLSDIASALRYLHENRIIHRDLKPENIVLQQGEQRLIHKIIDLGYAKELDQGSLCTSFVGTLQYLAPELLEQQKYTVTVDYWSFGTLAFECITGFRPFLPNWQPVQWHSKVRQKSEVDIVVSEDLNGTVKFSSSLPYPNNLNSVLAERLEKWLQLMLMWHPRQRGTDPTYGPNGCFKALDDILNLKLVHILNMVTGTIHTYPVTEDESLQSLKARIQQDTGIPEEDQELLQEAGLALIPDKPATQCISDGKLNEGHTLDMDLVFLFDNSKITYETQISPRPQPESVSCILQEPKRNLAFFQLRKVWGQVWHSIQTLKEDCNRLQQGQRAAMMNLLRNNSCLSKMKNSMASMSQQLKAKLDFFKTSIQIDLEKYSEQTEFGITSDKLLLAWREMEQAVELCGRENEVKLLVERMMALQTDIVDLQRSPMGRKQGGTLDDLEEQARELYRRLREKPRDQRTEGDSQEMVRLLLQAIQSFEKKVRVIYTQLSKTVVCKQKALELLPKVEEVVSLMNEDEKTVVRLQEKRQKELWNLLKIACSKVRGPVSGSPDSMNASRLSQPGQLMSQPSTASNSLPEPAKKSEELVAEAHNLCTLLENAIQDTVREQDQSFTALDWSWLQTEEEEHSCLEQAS
Chain of OXSR1 (human) (O95747 whole entry, looked up): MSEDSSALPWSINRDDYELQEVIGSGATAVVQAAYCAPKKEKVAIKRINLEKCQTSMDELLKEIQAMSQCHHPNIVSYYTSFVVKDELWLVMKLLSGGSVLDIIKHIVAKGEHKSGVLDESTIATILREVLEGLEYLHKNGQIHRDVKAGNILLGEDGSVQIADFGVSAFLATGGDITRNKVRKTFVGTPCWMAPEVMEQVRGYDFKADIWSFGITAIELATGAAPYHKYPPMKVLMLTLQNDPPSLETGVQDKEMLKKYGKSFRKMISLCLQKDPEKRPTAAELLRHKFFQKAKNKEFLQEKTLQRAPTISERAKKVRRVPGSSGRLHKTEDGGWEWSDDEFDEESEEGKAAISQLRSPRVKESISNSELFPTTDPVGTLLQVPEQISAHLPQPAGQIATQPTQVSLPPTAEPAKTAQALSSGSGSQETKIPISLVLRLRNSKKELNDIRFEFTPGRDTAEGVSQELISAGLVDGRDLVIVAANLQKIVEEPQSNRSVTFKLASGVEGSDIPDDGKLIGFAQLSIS
Chain of MUSK (human) (O15146 whole entry, looked up): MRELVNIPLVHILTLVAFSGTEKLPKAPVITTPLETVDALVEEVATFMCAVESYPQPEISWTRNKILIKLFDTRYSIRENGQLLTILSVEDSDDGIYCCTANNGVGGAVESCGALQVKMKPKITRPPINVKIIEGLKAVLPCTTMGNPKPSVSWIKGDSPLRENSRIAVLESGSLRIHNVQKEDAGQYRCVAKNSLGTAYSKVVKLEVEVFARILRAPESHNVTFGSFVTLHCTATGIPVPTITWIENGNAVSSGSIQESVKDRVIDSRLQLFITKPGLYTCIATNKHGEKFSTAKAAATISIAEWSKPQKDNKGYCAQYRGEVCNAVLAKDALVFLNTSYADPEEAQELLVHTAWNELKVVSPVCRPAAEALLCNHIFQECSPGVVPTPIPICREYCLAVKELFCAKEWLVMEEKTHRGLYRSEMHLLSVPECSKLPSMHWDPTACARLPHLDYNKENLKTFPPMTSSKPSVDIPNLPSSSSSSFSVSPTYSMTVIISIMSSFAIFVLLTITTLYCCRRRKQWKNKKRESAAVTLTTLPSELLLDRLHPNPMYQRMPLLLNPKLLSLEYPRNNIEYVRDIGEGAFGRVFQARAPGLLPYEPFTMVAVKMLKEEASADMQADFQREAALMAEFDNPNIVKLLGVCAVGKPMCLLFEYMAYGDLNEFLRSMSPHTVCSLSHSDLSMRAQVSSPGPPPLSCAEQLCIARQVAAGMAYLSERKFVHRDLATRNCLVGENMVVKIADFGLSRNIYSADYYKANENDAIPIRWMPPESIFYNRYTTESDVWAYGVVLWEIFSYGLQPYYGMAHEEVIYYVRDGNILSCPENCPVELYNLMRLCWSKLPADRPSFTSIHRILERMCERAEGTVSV

Question: Which results are given for `c1ccc(-c2n[nH]c3c2oc2ccccc23)cc1`?
Answer: residual activity (TYRO3 (human)): 87.6%; residual activity (CDK3 CCNE1 (human)): 90%; residual activity (ULK2 (human)): 96.4%; residual activity (CDK6 CCND3 (human)): 91.6%; residual activity (RPS6KA1 KD1 KD2 (human)): 100%; residual activity (RIPK2 (human)): 78.8%; residual activity (PIM2 (human)): 104%; residual activity (RPS6KA2 KD1 KD2 (human)): 77.5%; residual activity (NEK1 (human)): 95.2%; residual activity (PASK (human)): 97.4%; residual activity (SGK3 (human)): 111%; residual activity (GSK3A (human)): 91.4%; residual activity (ITK (human)): 80.4%; residual activity (CAMK2B (human)): 101%; residual activity (IKBKB (human)): 92.2%; residual activity [1]: 104%; residual activity (TSSK1B (human)): 97.2%; residual activity (OXSR1 (human)): 101%; residual activity (MST1R (human)): 87.4%; residual activity (PIM3 (human)): 117%; residual activity (TEK (human)): 96.8%; residual activity (PRKCA (human)): 92.9%; residual activity (MATK (human)): 94%; residual activity (MAP3K10 (human)): 91.4%; residual activity (MAPK10 (human)): 93.4%; residual activity (MAP4K5 (human)): 36.6%; residual activity (CSF1R (human)): 78.1%; residual activity (MAP4K4 (human)): 36.1%; residual activity (MAPKAPK2 (human)): 99.1%; residual activity (MUSK (human)): 72.6%; residual activity (BRSK1 (human)): 92.4%; residual activity (EPHA5 (human)): 92.1%; residual activity (PRKCI (human)): 85.9%; residual activity (FES (human)): 114%; residual activity (RET (human)): 78.2%; residual activity (STK3 (human)): 49.6%; residual activity (MAP2K2 (human)): 85.8%; residual activity (CAMK4 (human)): 93.7%; residual activity (PRKG2 (human)): 109%; residual activity (SIK2 (human)): 98.3%; residual activity (MINK1 (human)): 81.4%

Question: How did the residual activity (TYRO3 (human)) turn out when `CCC(=O)Nc1ccc2ncnc(Nc3cccc(Br)c3)c2c1` was run?
Answer: 101%

Question: What about the residual activity (CDK3 CCNE1 (human)) of the same compound?
Answer: 86.5%

Question: And the residual activity (ULK2 (human))?
Answer: 118%

Question: What about the residual activity (CDK6 CCND3 (human)) of the same compound?
Answer: 94.8%

Question: What about the residual activity (RPS6KA1 KD1 KD2 (human)) of the same compound?
Answer: 88.7%

Question: And the residual activity (RIPK2 (human))?
Answer: 71.4%

Question: And the residual activity (PIM2 (human))?
Answer: 90.3%

Question: And the residual activity (RPS6KA2 KD1 KD2 (human))?
Answer: 87.2%

Question: And the residual activity (NEK1 (human))?
Answer: 76.9%

Question: And the residual activity (PASK (human))?
Answer: 88.7%

Question: And the residual activity (SGK3 (human))?
Answer: 92.8%

Question: What about the residual activity (GSK3A (human)) of the same compound?
Answer: 98.2%

Question: What about the residual activity (ITK (human)) of the same compound?
Answer: 89.7%

Question: And the residual activity (CAMK2B (human))?
Answer: 105%

Question: What about the residual activity (IKBKB (human)) of the same compound?
Answer: 94.9%

Question: What about the residual activity [1] of the same compound?
Answer: 96.6%

Question: What about the residual activity (TSSK1B (human)) of the same compound?
Answer: 73.2%

Question: What about the residual activity (OXSR1 (human)) of the same compound?
Answer: 107%

Question: And the residual activity (MST1R (human))?
Answer: 97.2%

Question: And the residual activity (PIM3 (human))?
Answer: 76.6%

Question: And the residual activity (TEK (human))?
Answer: 91.2%

Question: What about the residual activity (PRKCA (human)) of the same compound?
Answer: 96.5%

Question: And the residual activity (MATK (human))?
Answer: 93.4%

Question: What about the residual activity (MAP3K10 (human)) of the same compound?
Answer: 91.2%

Question: What about the residual activity (MAPK10 (human)) of the same compound?
Answer: 96.5%

Question: What about the residual activity (MAP4K5 (human)) of the same compound?
Answer: 89%

Question: And the residual activity (CSF1R (human))?
Answer: 98.9%

Question: What about the residual activity (MAP4K4 (human)) of the same compound?
Answer: 91.1%

Question: What about the residual activity (MAPKAPK2 (human)) of the same compound?
Answer: 87.1%

Question: What about the residual activity (MUSK (human)) of the same compound?
Answer: 87.8%

Question: And the residual activity (BRSK1 (human))?
Answer: 83.3%

Question: And the residual activity (EPHA5 (human))?
Answer: 101%

Question: And the residual activity (PRKCI (human))?
Answer: 106%

Question: And the residual activity (FES (human))?
Answer: 102%

Question: What about the residual activity (RET (human)) of the same compound?
Answer: 106%

Question: And the residual activity (STK3 (human))?
Answer: 88%

Question: And the residual activity (MAP2K2 (human))?
Answer: 85.1%

Question: And the residual activity (CAMK4 (human))?
Answer: 103%

Question: What about the residual activity (PRKG2 (human)) of the same compound?
Answer: 110%

Question: And the residual activity (SIK2 (human))?
Answer: 98.7%

Question: And the residual activity (MINK1 (human))?
Answer: 95.8%

Question: For `Nc1ncnc2c1c(-c1ccc(Oc3ccccc3)cc1)cn2C1CCCC1`, which residual activity (TYRO3 (human)) is on record?
Answer: 102%

Question: What about the residual activity (CDK3 CCNE1 (human)) of the same compound?
Answer: 92.6%

Question: And the residual activity (ULK2 (human))?
Answer: 125%

Question: What about the residual activity (CDK6 CCND3 (human)) of the same compound?
Answer: 97.2%

Question: And the residual activity (RPS6KA1 KD1 KD2 (human))?
Answer: 94.2%

Question: What about the residual activity (RIPK2 (human)) of the same compound?
Answer: 28.6%

Question: And the residual activity (PIM2 (human))?
Answer: 110%

Question: What about the residual activity (RPS6KA2 KD1 KD2 (human)) of the same compound?
Answer: 101%

Question: What about the residual activity (NEK1 (human)) of the same compound?
Answer: 79.3%

Question: What about the residual activity (PASK (human)) of the same compound?
Answer: 98.5%

Question: What about the residual activity (SGK3 (human)) of the same compound?
Answer: 112%

Question: What about the residual activity (GSK3A (human)) of the same compound?
Answer: 105%

Question: And the residual activity (ITK (human))?
Answer: 87.1%

Question: And the residual activity (CAMK2B (human))?
Answer: 102%

Question: What about the residual activity (IKBKB (human)) of the same compound?
Answer: 101%

Question: What about the residual activity [1] of the same compound?
Answer: 111%

Question: And the residual activity (TSSK1B (human))?
Answer: 114%

Question: What about the residual activity (OXSR1 (human)) of the same compound?
Answer: 93.5%

Question: What about the residual activity (MST1R (human)) of the same compound?
Answer: 94%

Question: What about the residual activity (PIM3 (human)) of the same compound?
Answer: 98.7%

Question: And the residual activity (TEK (human))?
Answer: 94.3%

Question: What about the residual activity (PRKCA (human)) of the same compound?
Answer: 106%

Question: And the residual activity (MATK (human))?
Answer: 90%

Question: What about the residual activity (MAP3K10 (human)) of the same compound?
Answer: 82.6%

Question: And the residual activity (MAPK10 (human))?
Answer: 87.4%

Question: And the residual activity (MAP4K5 (human))?
Answer: 80.2%

Question: And the residual activity (CSF1R (human))?
Answer: 61.3%

Question: And the residual activity (MAP4K4 (human))?
Answer: 98.8%

Question: And the residual activity (MAPKAPK2 (human))?
Answer: 107%

Question: And the residual activity (MUSK (human))?
Answer: 115%

Question: What about the residual activity (BRSK1 (human)) of the same compound?
Answer: 99.7%

Question: What about the residual activity (EPHA5 (human)) of the same compound?
Answer: 108%

Question: And the residual activity (PRKCI (human))?
Answer: 103%

Question: What about the residual activity (FES (human)) of the same compound?
Answer: 94.9%

Question: What about the residual activity (RET (human)) of the same compound?
Answer: 9.97%

Question: And the residual activity (STK3 (human))?
Answer: 97.7%

Question: And the residual activity (MAP2K2 (human))?
Answer: 103%

Question: What about the residual activity (CAMK4 (human)) of the same compound?
Answer: 101%

Question: What about the residual activity (PRKG2 (human)) of the same compound?
Answer: 114%

Question: What about the residual activity (SIK2 (human)) of the same compound?
Answer: 101%

Question: What about the residual activity (MINK1 (human)) of the same compound?
Answer: 105%
